Data taken from US20090088380A1, “GHRH ANALOGS AND THERAPEUTIC USES THEREOF” (priority 2007, published 2009).
Values joined by “and” are separate entries in the source; they are usually repeats but may differ in a detail not shown here. Identical values can stand only once. Non-standard residues stand in square brackets, D forms with d. Residues, ends and D or L forms follow the SMILES beside them.

Legend:
[1] = system: malnourished subjects with CKD; test: Phase II CKD: 24-h urinary electrolytes; assay type: in vivo, human; conditions: for Calcium excretion: mean (SD) / Calcium/Creatinine ratio: median / EER Calcium: mean (SD) / EER Chloride: mean (SD) / EER Phosphate: mean (SD) / EER Potassium: mean (SD) / EER Sodium: mean (SD) / EFER Calcium: mean (SD) / EFER Chloride: mean (SD) / EFER Phosphate: mean (SD) / EFER Potassium: mean (SD) / EFER Sodium: mean (SD) / Fractional Pi reabsorption rate Pi/GFR: mean (SD) / Sodium excretion: mean (SD): ITT population
Protocol: Subjects collected 24-hour urine samples at screening, baseline (Days 0 to 1) and Days 28 to 29. All of the samples were analysed for creatinine and urea clearance (mL/min). The samples collected at baseline and on Day 28 were also analysed for proteinuria (Coumassie method), PNA, sodium, potassium, chloride, calcium and phosphate. GFR was calculated using the Cockcroft-Gault formula: Electrolyte excretion rates were calculated as follows: ? [formula] Electrolyte fractional excretion rates were calculated as follows: [formula]

[2] = system: malnourished subjects with CKD; test: Phase II CKD: bioimpedance; assay type: in vivo, human; conditions: for Basal metabolic rate: median / Body cell mass: median / Extracellular cell mass: median / Extracellular water: median / Intracellular water: median / Total body water: median / Fat free mass (%): median / Fat free mass (kg): median / Fat mass (%): median / Fat mass (kg): median: ITT; for Fat free mass (%): median / Fat free mass (kg): median / Fat mass (%): median / Fat mass (kg): median: bioimpedance
Protocol: Height (cm) was measured only at the screening visit. Anthrompometry was measured at every visit from baseline to follow-up. Anthropometric measurements included weight, skinfold thicknesses and arm circumference. Weight (kg) was measured using a high performance scale. Subjects were asked to stand on the scale with minimal clothing, no shoes, and with even weight on both feet. Skinfold thickness (mm) was measured by using Harpenden Skinfold Callipers at 4 sites: biceps, triceps, suprailiacal and subscapular. Arm circumference (cm) was measured using a tape measure that is flexible, inelastic and metric. The site measured was marked, and the tape was not to be too tight or too loose, and to lie flat on the skin, and be horizontal. Bioimpedance measurements were made to measure body composition at every visit from baseline to Day 28. The bioimpedance scale (RJL Systems) was used. Resistance, reactance and the phase angle were recorded.
Bioelectrical impedance (BIA) was used to evaluate body water content (total body water %, extracellular water and intracellular water), fat free mass and fat mass using Maltron BioScan 916 and BIA 450 apparatus from Biodynamics Corp. The method is fast, precise and noninvasive.
Bioimpedance measurements were done at every visit from baseline (day 0) on days 7, 14, 21 to 28. Weight and FFM (kg) were measured and FM (kg, %) and FFM (%) were derived. There was an increase from baseline in median FFM (3.3 kg) and decrease in median FM (1.8 kg) in all except one (11/12) patients in the GHRH(1-29)NH2 synthetic analog group on day 28 while there was a decrease in median FFM (0.8 kg) and increase in median FM (1.3 kg) in the placebo arm.

[3] = GHRH vs placebo, changes from baseline to Day 28
[4] = GHRH vs placebo, ANCOVA, assuming log-normal distribution

SMILES: CC[C@H](C)[C@H](NC(=O)[C@H](C)NC(=O)[C@H](CC(=O)O)NC(=O)[C@@H](C)NC(=O)[C@@H](N)Cc1ccc(O)cc1)C(=O)N[C@@H](Cc1ccccc1)C(=O)N[C@H](C(=O)N[C@@H](CC(N)=O)C(=O)N[C@@H](CO)C(=O)N[C@H](Cc1ccc(O)cc1)C(=O)N[C@@H](CCCNC(=N)N)C(=O)N[C@@H](CCCCN)C(=O)N[C@H](C(=O)N[C@@H](CC(C)C)C(=O)N[C@H](C)C(=O)N[C@@H](CCC(N)=O)C(=O)N[C@@H](CC(C)C)C(=O)N[C@@H](CO)C(=O)N[C@@H](C)C(=O)N[C@@H](CCCNC(=N)N)C(=O)N[C@@H](CCCCN)C(=O)N[C@@H](CCCCN)C(=O)N[C@@H](CC(C)C)C(=O)N[C@@H](CCC(N)=O)C(=O)N[C@@H](CC(=O)O)C(=O)N[C@H](C(=O)N[C@@H](CCSC)C(=O)N[C@@H](CO)C(=O)N[C@@H](CCCNC(=N)N)C(N)=O)[C@@H](C)CC)C(C)C)[C@@H](C)O [GHRH analog #5, [D-Ala^2, D-Tyr^10, D-Ala^15, Lys^22] hGHRH(1-29)-NH2] (H-Y[dA]DAIFTNS[dY]RKVL[dA]QLSARKKLQDIMSR-NH2)
- Calcium excretion: mean (SD) ([1]; Baseline): 0.988 (0.916) mmol/m^2/24 h
- Calcium/Creatinine ratio: median ([1]; Baseline): 0.145
- EER Calcium: mean (SD) ([1]; Baseline): 0.027 (0.027) mmol/kg/24 h
- EER Chloride: mean (SD) ([1]; Baseline): 2.213 (0.963) mmol/kg/24 h
- EER Phosphate: mean (SD) ([1]; Baseline): 0.328 (0.220) mmol/kg/24 h
- EER Potassium: mean (SD) ([1]; Baseline): 0.839 (0.332) mmol/kg/24 h
- EER Sodium: mean (SD) ([1]; Baseline): 2.428 (1.134) mmol/kg/24 h
- EFER Calcium: mean (SD) ([1]; Baseline): 1.933 (1.164) %
- EFER Chloride: mean (SD) ([1]; Baseline): 3.636 (1.945) %
- EFER Phosphate: mean (SD) ([1]; Baseline): 35.882 (14.172) %
- EFER Potassium: mean (SD) ([1]; Baseline): 28.325 (13.618) %
- EFER Sodium: mean (SD) ([1]; Baseline): 3.068 (1.658) %
- Fractional Pi reabsorption rate Pi/GFR: mean (SD) ([1]; Baseline): 0.861 (0.291) mmol/ml
- Sodium excretion: mean (SD) ([1]; Baseline): 89.90 (42.10) mmol/m^2/24 h
- Calcium excretion: mean (SD) ([1]; Day 28): 1.295 (1.231) mmol/m^2/24 h
- Calcium/Creatinine ratio: median ([1]; Day 28): 0.195
- EER Calcium: mean (SD) ([1]; Day 28): 0.036 (0.036) mmol/kg/24 h
- EER Chloride: mean (SD) ([1]; Day 28): 2.277 (1.028) mmol/kg/24 h
- EER Phosphate: mean (SD) ([1]; Day 28): 0.273 (0.129) mmol/kg/24 h
- EER Potassium: mean (SD) ([1]; Day 28): 0.656 (0.315) mmol/kg/24 h
- EER Sodium: mean (SD) ([1]; Day 28): 2.624 (1.020) mmol/kg/24 h
- EFER Calcium: mean (SD) ([1]; Day 28): 2.743 (2.157) %
- EFER Chloride: mean (SD) ([1]; Day 28): 4.156 (2.541) %
- EFER Phosphate: mean (SD) ([1]; Day 28): 35.968 (12.979) %
- EFER Potassium: mean (SD) ([1]; Day 28): 26.766 (18.120) %
- EFER Sodium: mean (SD) ([1]; Day 28): 3.359 (1.156) %
- Fractional Pi reabsorption rate Pi/GFR: mean (SD) ([1]; Day 28): 0.829 (0.211) mmol/ml
- Sodium excretion: mean (SD) ([1]; Day 28): 96.70 (37.30) mmol/m^2/24 h
- Calcium excretion: adjusted difference [1, 3]: −0.10 mmol/m^2/24 h
- EER Calcium: adjusted difference [1, 3]: −0.002 mmol/kg/24 h
- EER Chloride: adjusted difference [1, 3]: −0.136 mmol/kg/24 h
- EER Phosphate: adjusted difference [1, 3]: 0.020 mmol/kg/24 h
- EER Potassium: adjusted difference [1, 3]: −0.086 mmol/kg/24 h
- EER Sodium: adjusted difference [1, 3]: −0.020 mmol/kg/24 h
- EFER Calcium: adjusted difference [1, 3]: −0.48%
- EFER Chloride: adjusted difference [1, 3]: −1.13%
- EFER Phosphate: adjusted difference [1, 3]: −3.64%
- EFER Potassium: adjusted difference [1, 3]: −7.93%
- Fractional Pi reabsorption rate Pi/GFR: adjusted difference [1, 3]: -0.00006 mmol/mL
- Sodium excretion: adjusted difference [1, 3]: −1.18 mmol/m^2/24 h
- Calcium/Creatinine ratio: ratio (ratio of means) [1, 4]: 0.82
- EFER Sodium: ratio (ratio of means) [1, 4]: 0.79
- Calcium excretion: mean difference between groups ([1]; in vivo): −0.10 mmol/m^2/24 h
- Calcium:creatinine ratio: ratio of means ([1]; in vivo): 0.82
- EER chloride: mean difference between groups ([1]; in vivo): −0.136 mmol/kg/24 h
- EER phosphate: mean difference between groups ([1]; in vivo): 0.020 mmol/kg/24 h
- EER potassium: mean difference between groups ([1]; in vivo): −0.086 mmol/kg/24 h
- EER sodium: mean difference between groups ([1]; in vivo): −0.020 mmol/kg/24 h
- EFER chloride: mean difference between groups ([1]; in vivo): −1.13%
- EFER phosphate: mean difference between groups ([1]; in vivo): −3.64%
- EFER potassium: mean difference between groups ([1]; in vivo): −7.93%
- EFER sodium: ratio of means ([1]; in vivo): 0.79
- Electrolyte excretion rate (EER) calcium: mean difference between groups in change baseline to Day 28 ([1]; in vivo): −0.002 mmol/kg/24 h
- Electrolyte fractional excretion rate (EFER) calcium: mean difference between groups ([1]; in vivo): −0.48%
- Fractional Pi reabsorption rate (Pi/GFR): mean difference between groups ([1]; in vivo): -0.000059 mmol/mL
- Sodium excretion: mean difference between groups ([1]; in vivo): −1.18 mmol/m^2/24 h
- Fractional Pi reabsorption rate (Pi/GFR): mean difference between groups ([1]; in vivo, listed as GHRH(1-29)NH2 synthetic analog): -0.00006 mmol/mL
- Median FFM ([2]; BIA, day 7): 50.4 kg
- Median FM ([2]; BIA, day 7): 13.3 kg
- Median FFM ([2]; BIA, day 14): 50.8 kg
- Median FM ([2]; BIA, day 14): 13.4 kg
- Median FFM ([2]; BIA, day 21): 50.1 kg
- Median FM ([2]; BIA, day 21): 12.6 kg
- Decrease from baseline in median FM ([2]; BIA, day 28): 1.8 kg
- Increase from baseline in median FFM ([2]; BIA, day 28): 3.3 kg
- Increase in median BMR from baseline ([2]; BIA, day 28): 49 kcal
- Basal metabolic rate: median ([2]; Baseline): 1441 kcal
- Body cell mass: median ([2]; Baseline): 23 kg and 23.0 kg
- Extracellular cell mass: median ([2]; Baseline): 23.5 kg
- Extracellular water: median ([2]; Baseline): 17.7 L
- Intracellular water: median ([2]; Baseline): 17.0 L
- Total body water: median ([2]; Baseline): 35.8 L
- Basal metabolic rate: median ([2]; Day 28): 1473 kcal
- Body cell mass: median ([2]; Day 28): 22.6 kg
- Extracellular cell mass: median ([2]; Day 28): 24.7 kg
- Extracellular water: median ([2]; Day 28): 19.1 L
- Intracellular water: median ([2]; Day 28): 15.8 L
- Total body water: median ([2]; Day 28): 38.1 L
- Ratio of median ECW/ICW ([2]; baseline): 1.04
- Fat free mass (%): median ([2]; Baseline): 75.3%
- Fat free mass (kg): median ([2]; Baseline): 48.8 kg
- Fat mass (%): median ([2]; Baseline): 24.7%
- Fat mass (kg): median ([2]; Baseline): 16.0 kg
- Fat mass (kg): median ([2]; Baseline, listed as GHRH(1-29)NH2 synthetic analog): 16 kg
- Fat free mass (%): median ([2]; Day 28): 78.6%
- Fat free mass (kg): median ([2]; Day 28): 51.1 kg
- Fat mass (%): median ([2]; Day 28): 21.4%
- Fat mass (kg): median ([2]; Day 28): 12.2 kg
- Median BCM ([2]; day 7): 25.1 kg
- Median ECM ([2]; day 7): 24.4 kg
- Median increase in BCM from baseline ([2]; day 7): 1.3 kg
- Median increase in ECM from baseline ([2]; day 7): 0.8 kg
- Median BCM ([2]; day 14): 24.3 kg
- Median ECM ([2]; day 14): 25.4 kg
- Median BCM ([2]; day 21): 23.2 kg
- Median ECM ([2]; day 21): 25.9 kg
- Increase in median ECW from baseline ([2]; day 28): 1.9 L
- Increase in median ICW from baseline ([2]; day 28): 1.2 L
- Increase in median total body water from baseline ([2]; day 28): 3 L
- Median increase in BCM from baseline ([2]; day 28): 1.8 kg
- Median increase in ECM from baseline ([2]; day 28): 1.7 kg
- Ratio of median ECW/ICW ([2]; day 28): 1.2
